{"source": "ChEMBL document CHEMBL6120963", "about": "“Discovery of Novel PROTAC SIRT6 Degraders with Potent Efficacy against Hepatocellular Carcinoma” (J Med Chem, 2024)", "key": {"SK-HEP1 [1]": {"system": "SK-HEP1", "assay": "Effect of genes related to ubiquitin-mediated proteolysis in human SK-HEP1 cells at 2.5 uM incubated for 36 hrs by GSEA analysis", "assay_type": "functional, cell-based"}, "[2]": {"assay": "Toxicity in BALB/c nude mouse xenografted with human SK-HEP1 cells assessed as pathological damage in liver at 10 mg/kg treated for 28 to 30 days in presence of sorafenib by H and E staining based analysis", "assay_type": "organism-based", "conditions": "in vivo, time 28-30 day"}, "[3]": {"molecular_target": "T1, Protein cereblon/NAD-dependent protein deacylase sirtuin-6 (Homo sapiens, UniProt Q8N6T7+Q96SW2)", "T1 sequence (Q8N6T7 2-355 limits assumed)": "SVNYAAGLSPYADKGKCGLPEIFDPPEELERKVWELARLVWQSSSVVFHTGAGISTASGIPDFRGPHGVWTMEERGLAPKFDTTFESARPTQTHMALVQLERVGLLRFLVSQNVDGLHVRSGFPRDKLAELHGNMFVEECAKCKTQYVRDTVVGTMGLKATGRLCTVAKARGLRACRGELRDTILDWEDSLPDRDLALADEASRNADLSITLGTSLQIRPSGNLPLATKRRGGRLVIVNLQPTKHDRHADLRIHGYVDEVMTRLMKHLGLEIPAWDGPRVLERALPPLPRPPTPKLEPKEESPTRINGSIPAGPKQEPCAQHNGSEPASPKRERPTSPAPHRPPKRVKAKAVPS", "T1 sequence (Q96SW2 whole entry partner)": "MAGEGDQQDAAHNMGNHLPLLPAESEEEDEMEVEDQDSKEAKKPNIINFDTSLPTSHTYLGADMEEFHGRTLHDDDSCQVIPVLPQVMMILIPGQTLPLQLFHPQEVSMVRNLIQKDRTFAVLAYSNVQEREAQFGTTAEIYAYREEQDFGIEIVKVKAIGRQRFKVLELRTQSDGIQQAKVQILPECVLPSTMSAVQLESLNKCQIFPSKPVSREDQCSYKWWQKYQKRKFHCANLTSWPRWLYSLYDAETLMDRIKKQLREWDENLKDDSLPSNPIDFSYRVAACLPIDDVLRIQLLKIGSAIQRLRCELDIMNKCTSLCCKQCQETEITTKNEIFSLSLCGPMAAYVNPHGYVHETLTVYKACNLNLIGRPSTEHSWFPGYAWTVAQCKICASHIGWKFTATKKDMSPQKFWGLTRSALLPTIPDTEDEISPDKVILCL", "assay": "PROTAC activity at CRBN/SIRT6 in human SK-HEP1 cells assessed as impairment in gamma-H2AX foci formation by immunofluorescence based analysis", "assay_type": "cell-based"}, "[4]": {"assay": "Toxicity in BALB/c nude mouse xenografted with human SK-HEP1 cells assessed as pathological damage in heart at 10 mg/kg treated for 28 to 30 days by H and E staining based analysis", "assay_type": "organism-based", "conditions": "in vivo, time 28-30 day"}, "SK-HEP1 [5]": {"system": "SK-HEP1", "assay": "Inhibition of colony formation in human SK-HEP1 cells at 5 to 10 uM incubated for 10 to 14 days with replacement of medium containing compounds on every 3 days by crystal violet staining based analysis", "assay_type": "functional, cell-based", "conditions": "dose 5-10 µM, time 10-14 day"}, "[6]": {"molecular_target": "T1, Protein cereblon/NAD-dependent protein deacylase sirtuin-6", "assay": "PROTAC activity at CRBN/SIRT6 in human Huh-7 cells assessed as hook effect at 5 uM incubated for 36 hrs by Western blot analysis", "assay_type": "cell-based"}, "[7]": {"assay": "Toxicity in BALB/c nude mouse xenografted with human SK-HEP1 cells assessed as histopathological abnormalities in spleen at 10 mg/kg treated for 28 to 30 days by H and E staining based analysis", "assay_type": "organism-based", "conditions": "in vivo, time 28-30 day"}, "[8]": {"assay": "Toxicity in BALB/c nude mouse xenografted with human SK-HEP1 cells assessed as histopathological abnormalities in spleen at 10 mg/kg treated for 28 to 30 days under irradiation (3 Gy) by H and E staining based analysis", "assay_type": "organism-based", "conditions": "in vivo, time 28-30 day"}, "SK-HEP1 [9]": {"system": "SK-HEP1", "assay": "Cytotoxicity against human SK-HEP1 cells combined with irradiation (3 Gy) incubated for 72 hrs by CCK8 assay", "assay_type": "functional, cell-based", "conditions": "SK-HEP1, light or radiation study"}, "SK-HEP1 [10]": {"system": "SK-HEP1", "assay": "Downregulation of FBXO44 expression in human SK-HEP1 cells at 2.5 uM incubated for 36 hrs in presence of MLN4924", "assay_type": "functional, cell-based"}, "SK-HEP1 [11]": {"system": "SK-HEP1", "assay": "Downregulation of CCPG1 expression in human SK-HEP1 cells at 2.5 uM incubated for 36 hrs", "assay_type": "functional, cell-based"}, "SK-HEP1 [12]": {"system": "SK-HEP1", "assay": "Downregulation of FBXO44 expression in human SK-HEP1 cells at 2.5 uM incubated for 36 hrs in presence of MG132", "assay_type": "functional, cell-based"}, "SK-HEP1 [13]": {"system": "SK-HEP1", "assay": "Induction of cell cycle arrest in human SK-HEP1 cells assessed as accumulation at G2/M phase incubated for 72 hrs by PI staining based flow cytometry", "assay_type": "functional", "conditions": "dose 2.5-10 µM"}, "SK-HEP1 [14]": {"system": "SK-HEP1", "assay": "Effect of POSTN mRNA expression in human SK-HEP1 cells at 2.5 uM incubated for 36 hrs by RNA sequencing analysis", "assay_type": "functional, cell-based"}, "[15]": {"assay": "Toxicity in BALB/c nude mouse xenografted with human SK-HEP1 cells assessed as pathological damage in spleen at 10 mg/kg treated for 28 to 30 days in presence of sorafenib by H and E staining based analysis", "assay_type": "organism-based", "conditions": "in vivo, time 28-30 day"}, "SK-HEP1 [16]": {"system": "SK-HEP1", "assay": "Effect on SIRT7 expression in human SK-HEP1 cells at 0.002 to 1 uM incubated for 36 hrs by Western blot analysis", "assay_type": "functional, cell-based", "conditions": "dose 0.002-1 µM"}, "SK-HEP1 [17]": {"system": "SK-HEP1", "assay": "Effect of SIRT2 mRNA expression in human SK-HEP1 cells at 2.5 uM incubated for 36 hrs by RT-qPCR analysis", "assay_type": "functional, cell-based"}, "SK-HEP1 [18]": {"system": "SK-HEP1", "assay": "Downregulation of TEDC1 expression in human SK-HEP1 cells at 2.5 uM incubated for 36 hrs", "assay_type": "functional, cell-based"}, "[19]": {"molecular_target": "T1, Protein cereblon/NAD-dependent protein deacylase sirtuin-6", "assay": "PROTAC activity at CRBN/SIRT6 in human SK-HEP1 cells assessed as induction of SIRT6 degradation at 2 to 3 uM incubated for 36 hrs by Western blot analysis", "assay_type": "cell-based", "conditions": "dose 2-3 µM"}, "[20]": {"assay": "Toxicity in BALB/c nude mouse xenografted with human SK-HEP1 cells assessed as histopathological abnormalities in lungs at 10 mg/kg treated for 28 to 30 days in presence of sorafenib by H and E staining based analysis", "assay_type": "organism-based", "conditions": "in vivo, time 28-30 day"}, "SK-HEP1 [21]": {"system": "SK-HEP1", "assay": "Antitumor activity against human SK-HEP1 cells xenografted in BALB/c nude mouse at 10 mg/kg treated for 28 to 30 days relative to control", "assay_type": "functional", "conditions": "time 28-30 day"}, "SK-HEP1 [22]": {"system": "SK-HEP1", "assay": "Synergistic antitumor activity against human SK-HEP1 cells xenografted in BALB/c nude mouse at 10 mg/kg treated for 28 to 30 days in presence of sorafenib relative to control", "assay_type": "functional", "conditions": "time 28-30 day"}, "SK-HEP1 [23]": {"system": "SK-HEP1", "assay": "Antitumor activity against human SK-HEP1 cells xenografted in BALB/c nude mouse at 10 mg/kg treated for 28 to 30 days under irradiation (3 Gy) (reference value: 38.4 %)", "assay_type": "functional", "conditions": "time 28-30 day"}, "Huh-7": {"system": "Huh-7", "assay": "Effect on SIRT7 expression in human Huh-7 cells at 0.002 to 1 uM incubated for 36 hrs by Western blot analysis", "assay_type": "functional, cell-based", "conditions": "dose 0.002-1 µM"}, "[24]": {"molecular_target": "T1, Protein cereblon/NAD-dependent protein deacylase sirtuin-6", "assay": "PROTAC activity at CRBN/SIRT6 in human SK-HEP1 cells assessed as induction of SIRT6 degradation at 0.02 to 5 uM incubated for 36 hrs by Western blot analysis", "assay_type": "cell-based", "conditions": "dose 0.02-5 µM"}, "[25]": {"assay": "Toxicity in BALB/c nude mouse xenografted with human SK-HEP1 cells assessed as histopathological abnormalities in heart at 10 mg/kg treated for 28 to 30 days under irradiation (3 Gy) by H and E staining based analysis", "assay_type": "organism-based", "conditions": "in vivo, time 28-30 day"}, "[26]": {"molecular_target": "T1, Protein cereblon/NAD-dependent protein deacylase sirtuin-6", "assay": "PROTAC activity at CRBN/SIRT6 in human U2OS cells expressing EJ5 assessed as inhibition of SNF2H loading onto chromatin incubated for 36 hrs by FACS analysis", "assay_type": "cell-based"}, "SK-HEP1 [27]": {"system": "SK-HEP1", "assay": "Effect of FN1 mRNA expression in human SK-HEP1 cells at 2.5 uM incubated for 36 hrs by RNA sequencing analysis", "assay_type": "functional, cell-based"}, "[28]": {"assay": "Toxicity in BALB/c nude mouse xenografted with human SK-HEP1 cells assessed as pathological damage in liver at 10 mg/kg treated for 28 to 30 days under irradiation (3 Gy) by H and E staining based analysis", "assay_type": "organism-based", "conditions": "in vivo, time 28-30 day"}, "SK-HEP1 [29]": {"system": "SK-HEP1", "assay": "Induction of apoptosis in human SK-HEP1 cells at 2.5 uM incubated for 72 hrs in presence of sorafenib by Annexin V-FITC/PI staining based flow cytometry", "assay_type": "functional, cell-based"}, "[30]": {"molecular_target": "T1, Protein cereblon/NAD-dependent protein deacylase sirtuin-6", "assay": "PROTAC activity at CRBN/SIRT6 in human SK-HEP1 cells assessed as reduction in density of SIRT6 foci incubated for about 36 hrs by immunofluorescence based analysis", "assay_type": "cell-based", "conditions": "dose <= 5.0 µM"}, "SK-HEP1 [31]": {"system": "SK-HEP1", "assay": "Inhibition of colony formation in human SK-HEP1 cells at 2.5 uM incubated for 10 to 14 days with replacement of medium containing compounds on every 3 days in presence of sorafenib by crystal violet staining based analysis", "assay_type": "functional, cell-based", "conditions": "time 10-14 day"}, "SK-HEP1 [32]": {"system": "SK-HEP1", "assay": "Effect of genes related to protein heterodimerization in human SK-HEP1 cells at 2.5 uM incubated for 36 hrs by GSEA analysis", "assay_type": "functional, cell-based"}, "[33]": {"assay": "Toxicity in BALB/c nude mouse xenografted with human SK-HEP1 cells assessed as histopathological abnormalities in spleen at 10 mg/kg treated for 28 to 30 days in presence of sorafenib by H and E staining based analysis", "assay_type": "organism-based", "conditions": "in vivo, time 28-30 day"}}, "note": "The source made the active and inactive calls. No cut-off for these calls is given here.", "data": [{"compound": "Nc1cc(N2CCN(CC3CCN(c4cc5c(cc4F)C(=O)N(C4CCC(=O)NC4=O)C5=O)CC3)CC2)ccc1[N+](=O)[O-]", "note": "(centres undefined)", "values": [{"measurement": "Activity", "setting": "SK-HEP1 [1]", "result": "Active"}, {"measurement": "Activity", "setting": "[2]", "result": "Non-toxic"}, {"measurement": "Activity", "setting": "[3]", "result": "Active"}, {"measurement": "Activity", "setting": "[4]", "result": "Non-toxic"}, {"measurement": "inhibition", "setting": "SK-HEP1 [5]", "result": "Active"}, {"measurement": "Activity", "setting": "[6]", "result": "Active"}, {"measurement": "Activity", "setting": "[7]", "result": "Non-toxic"}, {"measurement": "Activity", "setting": "[8]", "result": "Non-toxic"}, {"measurement": "IC50", "setting": "SK-HEP1 [9]", "result": "~450", "unit": "nM"}, {"measurement": "Activity", "setting": "SK-HEP1 [10]", "result": "inactive"}, {"measurement": "Activity", "setting": "SK-HEP1 [11]", "result": "Active"}, {"measurement": "Activity", "setting": "SK-HEP1 [12]", "result": "inactive"}, {"measurement": "Activity", "setting": "SK-HEP1 [13]", "result": "Dose-dependent-effect"}, {"measurement": "Activity", "setting": "SK-HEP1 [14]", "result": "Active"}, {"measurement": "Activity", "setting": "[15]", "result": "Non-toxic"}, {"measurement": "Activity", "setting": "SK-HEP1 [16]", "result": "No effect"}, {"measurement": "Activity", "setting": "SK-HEP1 [17]", "result": "No effect"}, {"measurement": "Activity", "setting": "SK-HEP1 [18]", "result": "Active"}, {"measurement": "Activity", "setting": "[19]", "result": "Active"}, {"measurement": "Activity", "setting": "[20]", "result": "Non-toxic"}, {"measurement": "T/C", "setting": "SK-HEP1 [21]", "result": 39.6, "unit": "%"}, {"measurement": "T/C", "setting": "SK-HEP1 [22]", "result": 18.2, "unit": "%"}, {"measurement": "T/C", "setting": "SK-HEP1 [23]", "result": 26.1, "unit": "%"}, {"measurement": "Activity", "setting": "Huh-7", "result": "No effect"}, {"measurement": "Activity", "setting": "[24]", "result": "Active"}, {"measurement": "Activity", "setting": "[25]", "result": "Non-toxic"}, {"measurement": "inhibition", "setting": "[26]", "result": "Active; Results In Decrease In Hr And Nhej Efficiencies"}, {"measurement": "Activity", "setting": "SK-HEP1 [27]", "result": "Active"}, {"measurement": "Activity", "setting": "[28]", "result": "Non-toxic"}, {"measurement": "Activity", "setting": "SK-HEP1 [29]", "result": "Active"}, {"measurement": "Activity", "setting": "[30]", "result": "Dose-dependent-effect"}, {"measurement": "inhibition", "setting": "SK-HEP1 [31]", "result": "Active; Exhibited Superior To Compound Alone"}, {"measurement": "Activity", "setting": "SK-HEP1 [32]", "result": "Active"}, {"measurement": "Activity", "setting": "[33]", "result": "Non-toxic"}]}]}
